# pIC50: −log10 of the molar value.
# Columns and labels:
# [1] = tested on: COR-L105; test: cells; type: functional, cell-based, Homo sapiens; conditions: Homo sapiens, COR-L105
# Description: SANGER: Inhibition of human COR-L105 cell growth in a cell viability assay.
# [2] = tested on: SBC-5; test: cells; type: functional, cell-based, Homo sapiens; conditions: Homo sapiens, SBC-5;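 note: cell viability assay read-out, IC50 is the concentration that inhibits growth of the cells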
# Description: SANGER: Inhibition of human SBC-5 cell growth in a cell viability assay.
# [3] = tested on: REH; test: cells; type: functional, cell-based, Homo sapiens; conditions: Homo sapiens, REH;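 note: growth inhibition of REH cells determined with a cell viability read-out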
# Description: SANGER: Inhibition of human REH cell growth in a cell viability assay.
# [4] = tested on: LCLC-103H cell line; test: cells; type: functional, cell-based, Homo sapiens; conditions: Homo sapiens, LCLC-103H
# Description: SANGER: Inhibition of human LCLC-103H cell growth in a cell viability assay.
# [5] = tested on: GCT; test: cells; type: functional, cell-based, Homo sapiens; conditions: Homo sapiens, GCT;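 note: GCT cell line proliferation inhibition, read out with a cell viability assay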
# Description: SANGER: Inhibition of human GCT cell growth in a cell viability assay.
# [6] = tested on: DU-145; test: cells; type: functional, cell-based, Homo sapiens; conditions: Homo sapiens, DU-145
# Description: SANGER: Inhibition of human DU-145 cell growth in a cell viability assay.
# [7] = tested on: SK-CO-1; test: cells; type: functional, cell-based, Homo sapiens; conditions: Homo sapiens, SK-CO-1;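 note: growth inhibition of SK-CO-1 cells, determined by a viability readout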
# Description: SANGER: Inhibition of human SK-CO-1 cell growth in a cell viability assay.
# [8] = tested on: OPM-2; test: cells; type: functional, cell-based, Homo sapiens; conditions: Homo sapiens, OPM-2;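 note: growth of OPM-2 cells measured with a viability assay, IC50 for suppression of proliferation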
# Description: SANGER: Inhibition of human OPM-2 cell growth in a cell viability assay.
# [9] = tested on: COLO 205; test: cells; type: functional, cell-based, Homo sapiens; conditions: Homo sapiens, COLO 205
# Description: SANGER: Inhibition of human COLO-205 cell growth in a cell viability assay.
# [10] = tested on: RPMI 8402; test: SANGER: Inhibition of human RPMI-8402 cell growth in a cell viability assay.; type: functional, cell-based; conditions: Homo sapiens, RPMI 8402; read-out: IC50
# [11] = tested on: SAS; test: cells; type: functional, cell-based, Homo sapiens; conditions: Homo sapiens, SAS
# Description: SANGER: Inhibition of human SAS cell growth in a cell viability assay.
# [12] = tested on: 647-V; test: cells; type: functional, cell-based, Homo sapiens; conditions: Homo sapiens, 647-V;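 note: growth inhibition of 647-V cells, read out with a cell viability assay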
# Description: SANGER: Inhibition of human 647-V cell growth in a cell viability assay.
# [13] = tested on: HCT-15; test: cells; type: functional, cell-based, Homo sapiens; conditions: Homo sapiens, HCT-15;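 note: cell viability readout, IC50 reflecting suppression of HCT-15 cell growth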
# Description: SANGER: Inhibition of human HCT-15 cell growth in a cell viability assay.
# [14] = tested on: OAW-28; test: cells; type: functional, cell-based, Homo sapiens; conditions: Homo sapiens, OAW-28;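 note: growth inhibition of OAW-28 cells, read out with a cell viability assay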
# Description: SANGER: Inhibition of human OAW-28 cell growth in a cell viability assay.
# [15] = tested on: LOUCY; test: cells; type: functional, cell-based, Homo sapiens; conditions: Homo sapiens, LOUCY
# Description: SANGER: Inhibition of human LOUCY cell growth in a cell viability assay.
# [16] = tested on: L-540; test: cells; type: functional, cell-based, Homo sapiens; conditions: Homo sapiens, L-540;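 note: growth inhibition of the human L-540 cell line, read out with a viability assay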
# Description: SANGER: Inhibition of human L-540 cell growth in a cell viability assay.
# [17] = tested on: NCI-H889; test: cells; type: functional, cell-based, Homo sapiens; conditions: Homo sapiens, NCI-H889
# Description: SANGER: Inhibition of human NCI-H889 cell growth in a cell viability assay.
# [18] = tested on: DMS-53; test: cells; type: functional, cell-based, Homo sapiens; conditions: Homo sapiens, DMS-53;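 note: cell viability assay measuring growth inhibition of human DMS-53 cells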
# Description: SANGER: Inhibition of human DMS-53 cell growth in a cell viability assay.
# [19] = tested on: Calu-1; test: SANGER: Inhibition of human Calu-1 cell growth in a cell viability assay.; type: functional, cell-based; conditions: Homo sapiens, Calu-1
# [20] = tested on: EW-7; test: SANGER: Inhibition of human EW-7 cell growth in a cell viability assay.; type: functional, cell-based; conditions: Homo sapiens, EW-7
# [21] = tested on: SNU-475; test: cells; type: functional, cell-based, Homo sapiens; conditions: Homo sapiens, SNU-475
# Description: SANGER: Inhibition of human SNU-475 cell growth in a cell viability assay.
# [22] = tested on: SK-MEL-28; test: cells; type: functional, cell-based, Homo sapiens; conditions: Homo sapiens, SK-MEL-28;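 note: growth inhibition of human SK-MEL-28 cells, read out with a cell viability assay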
# Description: SANGER: Inhibition of human SK-MEL-28 cell growth in a cell viability assay.
# [23] = tested on: MFE-296; test: SANGER: Inhibition of human MFE-296 cell growth in a cell viability assay.; type: functional, cell-based; conditions: Homo sapiens, MFE-296
# [24] = tested on: EFE-184; test: cells; type: functional, cell-based, Homo sapiens; conditions: Homo sapiens, EFE-184
# Description: SANGER: Inhibition of human EFE-184 cell growth in a cell viability assay.
# [25] = tested on: IPC-298; test: SANGER: Inhibition of human IPC-298 cell growth in a cell viability assay.; type: functional, cell-based; conditions: Homo sapiens, IPC-298
# [26] = tested on: NCI-H838; test: cells; type: functional, cell-based, Homo sapiens; conditions: Homo sapiens, NCI-H838;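 note: growth inhibition of human NCI-H838 cells, read out by a cell viability assay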
# Description: SANGER: Inhibition of human NCI-H838 cell growth in a cell viability assay.
# [27] = tested on: UACC-62; test: cells; type: functional, cell-based, Homo sapiens; conditions: Homo sapiens, UACC-62;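 note: growth inhibition of human UACC-62 cells, read out by a cell viability assay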
# Description: SANGER: Inhibition of human UACC-62 cell growth in a cell viability assay.
# [28] = tested on: MDA-MB-468; test: cells; type: functional, cell-based, Homo sapiens; conditions: Homo sapiens, MDA-MB-468
# Description: SANGER: Inhibition of human MDA-MB-468 cell growth in a cell viability assay.
# [29] = tested on: NCI-H1882; test: cells; type: functional, cell-based, Homo sapiens; conditions: Homo sapiens, NCI-H1882;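 note: growth inhibition of the cell line, determined with a viability assay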
# Description: SANGER: Inhibition of human NCI-H1882 cell growth in a cell viability assay.
# [30] = tested on: SCC-4; test: cells; type: functional, cell-based, Homo sapiens; conditions: Homo sapiens, SCC-4;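 note: growth inhibition of human SCC-4 cells, read out as cell viability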
# Description: SANGER: Inhibition of human SCC-4 cell growth in a cell viability assay.
# [31] = tested on: SNU-16; test: cells; type: functional, cell-based, Homo sapiens; conditions: Homo sapiens, SNU-16;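 note: growth inhibition of human SNU-16 cells, determined with a cell viability readout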
# Description: SANGER: Inhibition of human NCI-SNU-16 cell growth in a cell viability assay.
# [32] = tested on: NCI-H345; test: cells; type: functional, cell-based, Homo sapiens; conditions: Homo sapiens, NCI-H345;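 note: growth inhibition of NCI-H345 cells measured with a cell viability assay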
# Description: SANGER: Inhibition of human NCI-H345 cell growth in a cell viability assay.
# [33] = tested on: EFM-19; test: cells; type: functional, cell-based, Homo sapiens; conditions: Homo sapiens, EFM-19;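 note: growth inhibition of human EFM-19 cells, measured in a cell viability assay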
# Description: SANGER: Inhibition of human EFM-19 cell growth in a cell viability assay.
# [34] = tested on: SW780; test: cells; type: functional, cell-based, Homo sapiens; conditions: Homo sapiens, SW780
# Description: SANGER: Inhibition of human SW780 cell growth in a cell viability assay.
# [35] = tested on: NCI-H1618; test: cells; type: functional, cell-based, Homo sapiens; conditions: Homo sapiens, NCI-H1618;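 note: growth inhibition of human NCI-H1618 cells, measured by a cell viability assay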
# Description: SANGER: Inhibition of human NCI-H1618 cell growth in a cell viability assay.
# [36] = tested on: BEN; test: cells; type: functional, cell-based, Homo sapiens; conditions: Homo sapiens, BEN;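 note: growth inhibition of the BEN cell line, read out with a cell viability assay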
# Description: SANGER: Inhibition of human BEN cell growth in a cell viability assay.
# [37] = tested on: Panc1005; test: cells; type: functional, cell-based, Homo sapiens; conditions: Homo sapiens, Panc1005;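 note: growth inhibition of human PANC-10-05 cells, measured by a cell viability assay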
# Description: SANGER: Inhibition of human PANC-10-05 cell growth in a cell viability assay.
# [38] = tested on: TALL-1; test: cells; type: functional, cell-based, Homo sapiens; conditions: Homo sapiens, TALL-1;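 note: growth inhibition of cultured human TALL-1 cells, read out by a cell viability assay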
# Description: SANGER: Inhibition of human TALL-1 cell growth in a cell viability assay.
# [39] = tested on: CHP-126; test: cells; type: functional, cell-based, Homo sapiens; conditions: Homo sapiens, CHP-126
# Description: SANGER: Inhibition of human CHP-126 cell growth in a cell viability assay.
# [40] = tested on: HuP-T4; test: cells; type: functional, cell-based, Homo sapiens; conditions: Homo sapiens, HuP-T4;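 note: cell viability assay measuring how much HuP-T4 cell growth is inhibited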
# Description: SANGER: Inhibition of human HuP-T4 cell growth in a cell viability assay.
# [41] = tested on: HCC1143; test: cells; type: functional, cell-based, Homo sapiens; conditions: Homo sapiens, HCC1143;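 note: growth inhibition of human HCC1143 cells, read out with a cell viability assay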
# Description: SANGER: Inhibition of human HCC1143 cell growth in a cell viability assay.
# [42] = tested on: UACC-812; test: cells; type: functional, cell-based, Homo sapiens; conditions: Homo sapiens, UACC-812
# Description: SANGER: Inhibition of human UACC-812 cell growth in a cell viability assay.
smiles,measurement,setting,value
O=C(O)c1ccc(-c2c[nH]c3ncc(-c4ccccc4)cc23)cc1C1CCCC1 [GSK-650394],pIC50,[1],< 4.80
same,pIC50,[2],4.83
same,pIC50,[3],< 4.80
same,pIC50,[4],5.41
same,pIC50,[5],< 4.80
same,pIC50,[6],< 4.80
same,pIC50,[7],< 4.80
same,pIC50,[8],< 4.80
same,pIC50,[9],< 4.80
same,pIC50,[10],< 4.80
same,pIC50,[11],< 4.80
same,pIC50,[12],< 4.80
same,pIC50,[13],5.44
same,pIC50,[14],< 4.80
same,pIC50,[15],< 4.80
same,pIC50,[16],< 4.80
same,pIC50,[17],< 4.80
same,pIC50,[18],< 4.80
same,pIC50,[19],< 4.80
same,pIC50,[20],< 4.80
same,pIC50,[21],< 4.80
same,pIC50,[22],< 4.80
same,pIC50,[23],4.95
same,pIC50,[24],< 4.80
same,pIC50,[25],< 4.80
same,pIC50,[26],< 4.80
same,pIC50,[27],< 4.80
same,pIC50,[28],< 4.80
same,pIC50,[29],< 4.80
same,pIC50,[30],< 4.80
same,pIC50,[31],< 4.80
same,pIC50,[32],< 4.80
same,pIC50,[33],< 4.80
same,pIC50,[34],< 4.80
same,pIC50,[35],< 4.80
same,pIC50,[36],< 4.80
same,pIC50,[37],4.94
same,pIC50,[38],< 4.80
same,pIC50,[39],< 4.80
same,pIC50,[40],5.07
same,pIC50,[41],< 4.80
same,pIC50,[42],< 4.80
Nc1ccn([C@@H]2O[C@H](CO)[C@@H](O)C2(F)F)c(=O)n1 [GEMCITABINE],pIC50,[1],7.53
same,pIC50,[2],> 8.40
same,pIC50,[3],7.84
same,pIC50,[4],7.48
same,pIC50,[5],6.39
same,pIC50,[6],8.03
same,pIC50,[7],7.47
same,pIC50,[8],< 5.99
same,pIC50,[9],< 5.99
same,pIC50,[10],7.34
same,pIC50,[11],7.69
same,pIC50,[12],> 8.40
same,pIC50,[13],7.09
same,pIC50,[14],7.34
same,pIC50,[15],7.68
same,pIC50,[16],8.80
same,pIC50,[17],< 5.99
same,pIC50,[18],< 5.99
same,pIC50,[19],6.66
same,pIC50,[20],> 8.40
same,pIC50,[21],< 5.99
same,pIC50,[22],< 5.99
same,pIC50,[23],7.29
same,pIC50,[24],< 5.99
same,pIC50,[25],6.59
same,pIC50,[26],6.30
same,pIC50,[27],6.09
same,pIC50,[28],7.85
same,pIC50,[29],7.08
same,pIC50,[30],6.67
same,pIC50,[31],< 5.99
same,pIC50,[32],< 5.99
same,pIC50,[33],< 5.99
same,pIC50,[34],< 5.99
same,pIC50,[35],6.70
same,pIC50,[36],6.62
same,pIC50,[37],7.81
same,pIC50,[38],< 5.99
same,pIC50,[39],7.62
same,pIC50,[40],7.56
same,pIC50,[41],< 5.99
same,pIC50,[42],< 5.99

# From ChEMBL document CHEMBL1201861, “Genomics of Drug Sensitity in Cancer screening data, Wellcome Trust Sanger Institute”
